# In US20150368248A1, “2-SUBSTITUTED-6-BIARYLMETHYLAMINO-9-CYCLOPENTYL-9H-PURINE DERIVATIVES, USE THEREOF AS MEDICAMENTS, AND PHARMACEUTICAL COMPOSITIONS” (UNIVERZITA PALACKEHO V OLOMOUCI, priority 2013, published 2015):
# pIC50: −log10 of the molar value.
# Experiments:
# [1] = test system: caspase-3/7 activity in Hep3B cell line; experiment: One-step cellular caspase-3/7 activity assay; assay type: cell-based, human; details: 24 hours, 0 nM = 1.00
# Outline: (§1)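 Hep3B or PLC/PRF/5 cells, plated overnight, were exposed to compounds for 24 h. Lysis buffer containing 150 μM Ac-DEVD-AMC substrate was added, and plates were incubated at 37° C. Caspase-3/7 activity was read as AMC fluorescence (ex 346/em 442 nm) after 6 h.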
# [2] = test system: caspase-3/7 activity in PLC/PRF/5 cell line; experiment: One-step cellular caspase-3/7 activity assay; assay type: cell-based, human; details: 24 hours incubation, relative to 0 nM = 1.00
# Outline: as §1
# [3] = test system: p53-regulated transcription in Arn8 cells; experiment: p53-dependent transcriptional activity, β-galactosidase reporter; assay type: cell-based; details: 24 h incubation
# Outline: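 Arn8 melanoma cells stably carrying the p53-responsive pRGCAfoslacZ reporter, exposed to compounds for 24 h. Cells permeabilised with 0.3% Triton X-100 for 15 min, then given 80 μM 4-methylumbelliferyl-β-D-galactopyranoside. β-Galactosidase product fluorescence read after 1 h at 355/460 nm.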
# [4] = test system: HepG2; experiment: MTT cytotoxicity assay (Example 30); assay type: cell-based; details: Homo sapiens, HepG2, 72 h; MTT, three days after drug addition; read-out: Inhibitory concentration IC50, HepG2
# Outline: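 HepG2 cells in EMEM with 10% FBS, seeded at 10000 per well, dosed next day in triplicate at various concentrations. Three days later MTT added for 4 h; formazan dissolved in DMSO and absorbance read at 570 nm.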
# [5] = molecular target: T1, CDK1/cyclin B (Homo sapiens, UniProt P06493); experiment: Kinase inhibition assay, recombinant kinase, [γ-33P]ATP; assay type: biochemical; details: read-out: Kinase inhibition IC50, CDK1
# T1 construct: made in house; host or cells: Sf9 insect cells (baculovirus)
# Protocol: CDK2/Cyclin E kinase was produced in Sf9 insect cells via baculoviral infection and purified on a NiNTA column (Qiagen). CDK5/p35, CDK7Cyclin H/MAT1 and CDK9/Cyclin T1 was purchased from ProQinase GmbH. […] The reactions were stopped by adding 5 μL of 3% aq H3PO4. Aliquots were spotted onto P-81 phosphocellulose (Whatman), washed 3× with 0.5% aq H3PO4 and finally air-dried.
# CDK1/cyclin B and CDK2/cyclin E kinases were produced in Sf9 insect cells via baculoviral infection, while CDK5/p35, CDK7/cyclin H/MAT1, and CDK9/cyclin T1 were purchased from ProQinase (Freiburg, Germany) and assayed as described previously (35). The kinase reactions were assayed with 1 mg/ml histone H1 (for CDK2 and CDK5) or (YSPTSPS)2KK peptide (for CDK7 and CDK9) in the presence of 15/0.15/1.5/1.5 […] ATP (for CDK2/CDK5/CDK7CDK9), […] [γ-^33P]ATP and of the test compound in a final volume of […]. The reaction buffer contained 60 mM HEPES-NaOH, pH 7.5, 3 mM MgCl2, 3 mM MnCl2, 3 mM Na-orthovanadate, 1.2 mM DTT, 2.5 mg/50 ml PEG20.000. The reactions were stopped by adding […] of 3% H3PO4. Aliquots were spotted onto P-81 phosphocellulose (Whatman, GE Healthcare Biosciences, Pittsburgh, USA), washed 3 times with 0.5% H3PO4 and finally air-dried. Kinase inhibition was quantified using a FLA-7000 digital image analyzer (Fujifilm, Tokyo, Japan).
# T1 sequence (P06493 whole entry, species assumed): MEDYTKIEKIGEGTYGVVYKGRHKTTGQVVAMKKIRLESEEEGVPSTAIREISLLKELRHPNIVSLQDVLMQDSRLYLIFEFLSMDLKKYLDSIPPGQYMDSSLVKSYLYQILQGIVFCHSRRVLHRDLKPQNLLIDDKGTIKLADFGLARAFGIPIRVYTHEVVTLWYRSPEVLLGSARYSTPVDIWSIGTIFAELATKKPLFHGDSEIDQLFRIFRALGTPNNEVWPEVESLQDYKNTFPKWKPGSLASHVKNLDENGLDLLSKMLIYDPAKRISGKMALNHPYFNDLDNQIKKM
# T1 sequence (P14635 whole entry partner, species assumed): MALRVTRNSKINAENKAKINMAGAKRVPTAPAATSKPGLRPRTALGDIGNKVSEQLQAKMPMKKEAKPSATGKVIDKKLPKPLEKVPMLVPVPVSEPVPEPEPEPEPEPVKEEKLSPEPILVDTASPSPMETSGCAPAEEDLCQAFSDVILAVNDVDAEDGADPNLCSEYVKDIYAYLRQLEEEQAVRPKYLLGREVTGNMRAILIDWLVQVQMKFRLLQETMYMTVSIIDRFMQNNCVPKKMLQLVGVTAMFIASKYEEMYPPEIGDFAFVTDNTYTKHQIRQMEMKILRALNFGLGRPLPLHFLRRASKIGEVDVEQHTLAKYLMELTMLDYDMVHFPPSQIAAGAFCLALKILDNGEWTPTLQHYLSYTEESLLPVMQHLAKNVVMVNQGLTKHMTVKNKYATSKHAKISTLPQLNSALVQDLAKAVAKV
pIC50 [5],melting point,SMILES,Relative caspase-3/7 activity in Hep3B cell line ([1]; 200 nM),Relative caspase-3/7 activity in Hep3B cell line ([1]; 400 nM),Relative caspase-3/7 activity in Hep3B cell line ([1]; 800 nM),Relative caspase-3/7 activity in Hep3B cell line ([1]; 1600 nM),Relative caspase-3/7 activity in PLC/PRF/5 cell line ([2]; compound concentration 40 nM),Relative caspase-3/7 activity in PLC/PRF/5 cell line ([2]; compound concentration 80 nM),Relative caspase-3/7 activity in PLC/PRF/5 cell line ([2]; compound concentration 160 nM),Relative caspase-3/7 activity in PLC/PRF/5 cell line ([2]; compound concentration 320 nM),Relative caspase-3/7 activity in PLC/PRF/5 cell line ([2]; compound concentration 640 nM),Relative caspase-3/7 activity in PLC/PRF/5 cell line ([2]; compound concentration 1280 nM),Concentration of maximum activation [3],pIC50 [4],Relative caspase-3/7 activity in Hep3B cell line ([1]; 100 nM)
6.67,164 to 166 °C,"OC1CCC(Nc2nc(NCc3ccc(-c4ccco4)nc3)c3ncn(C4CCCC4)c3n2)CC1 (centres unmarked) [BP21, 4-{9-cyclopentyl-6-[(6-furan-2-yl-pyridin-3-ylmethyl)-amino]-9H-purine-2-ylamino}-cyklohexanol]",1.15,1.18,4.36,7.19,0.69,1.20,2.19,3.39,>5.00,>5.00,918 nM,7.42,
7.00,173 to 175 °C,"Nc1ccccc1-c1ccc(CNc2nc(NC3CCC(N)CC3)nc3c2ncn3C2CCCC2)cn1 (centres unmarked) [BP22, N^2-(4-amino-cyclohexyl)-9-cyclopentyl-N^6-[6-(2-amino-phenyl)-pyridin-3-ylmethyl]-9H-purine-2,6-diamine]",0.81,0.80,0.81,1.18,,,0.72,1.08,1.92,3.50,373 nM,< 6.00,
7.24,186 to 187 °C,"NC1CCC(Nc2nc(NCc3ccc(-n4cccn4)cc3)c3ncn(C4CCCC4)c3n2)CC1 (centres unmarked) [BP24, N^2-(4-amino-cyclohexyl)-9-cyclopentyl-N^6-(4-pyrazol-1-yl-benzyl)-9H-purine-2,6-diamine]",6.18,6.81,9.80,9.65,2.01,2.59,>5.00,>5.00,>5.00,>5.00,260 nM,6.85,1.98
7.31,151 to 153 °C,"NC1CCC(Nc2nc(NCc3ccc(-c4cccs4)nc3)c3ncn(C4CCCC4)c3n2)CC1 (centres unmarked) [BP30, N^2-(4-amino-cyclohexyl)-9-cyclopentyl-N^6-(6-thiophen-2-yl-pyridin-3-ylmethyl)-9H-purine-2,6-diamine]",5.32,8.08,9.00,9.43,2.46,3.93,>5.00,>5.00,>5.00,>5.00,120 nM,6.69,2.99
